Experimental data from PubChem BioAssay AID1918958 (Molecular Pharmacology Branch, DTP, NCI, 2023).

Tested on: NCI-H196 complex spheroid viability
Experiment: Anticancer human tumor NCI-H196 cell line growth inhibition [LSD1];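 also: spheroids exposed to agents for 7 days before readout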;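 as to viability, T/C: 100% = DMSO vehicle control viability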
Details: for IC50: curve of first compound; for viability, T/C: stronger effect = lower value
Method in brief: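 Complex spheroids of tumor cells with HUVEC and human MSCs, exposed to iadademstat combined with other agents. Each agent tested in half-log steps from near clinical Cmax (else 10 microM top), DMSO ≤0.25%.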

**Q.** For `CC(C)c1c(-c2ccccc2)nc2c(C#N)c[nH]n2c1=O` + NC1CCC(NC2CC2c2ccccc2)CC1, which IC50 (second compound 0.1 µM) is on record?
**A.** > 10 µM

**Q.** And the IC50 (second compound 0.316 µM)?
**A.** > 10 µM

**Q.** What about the IC50 (second compound 1 µM) of the same compound?
**A.** > 10 µM

**Q.** What about the IC50 (second compound 3.16 µM) of the same compound?
**A.** > 10 µM

**Q.** And the IC50 (second compound 10 µM)?
**A.** > 10 µM

**Q.** What about the viability, T/C (second compound 0.1 µM, first compound 0.0316 µM) of the same compound?
**A.** 104%

**Q.** And the viability, T/C (second compound 0.1 µM, first compound 0.1 µM)?
**A.** 105%

**Q.** What about the viability, T/C (second compound 0.1 µM, first compound 0.316 µM) of the same compound?
**A.** 114%

**Q.** And the viability, T/C (second compound 0.1 µM, first compound 1 µM)?
**A.** 94.2%

**Q.** And the viability, T/C (second compound 0.1 µM, first compound 3.16 µM)?
**A.** 90.7%

**Q.** And the viability, T/C (second compound 0.1 µM, first compound 10 µM)?
**A.** 95.6%

**Q.** What about the viability, T/C (second compound 0.316 µM, first compound 0.0316 µM) of the same compound?
**A.** 101%

**Q.** What about the viability, T/C (second compound 0.316 µM, first compound 0.1 µM) of the same compound?
**A.** 101%

**Q.** And the viability, T/C (second compound 0.316 µM, first compound 0.316 µM)?
**A.** 107%

**Q.** What about the viability, T/C (second compound 0.316 µM, first compound 1 µM) of the same compound?
**A.** 98.2%

**Q.** And the viability, T/C (second compound 0.316 µM, first compound 3.16 µM)?
**A.** 90%

**Q.** What about the viability, T/C (second compound 0.316 µM, first compound 10 µM) of the same compound?
**A.** 84.9%

**Q.** And the viability, T/C (second compound 1 µM, first compound 0.0316 µM)?
**A.** 97.4%

**Q.** What about the viability, T/C (second compound 1 µM, first compound 0.1 µM) of the same compound?
**A.** 93.3%

**Q.** And the viability, T/C (second compound 1 µM, first compound 0.316 µM)?
**A.** 96.4%

**Q.** And the viability, T/C (second compound 1 µM, first compound 1 µM)?
**A.** 94.1%

**Q.** What about the viability, T/C (second compound 1 µM, first compound 3.16 µM) of the same compound?
**A.** 91.7%

**Q.** What about the viability, T/C (second compound 1 µM, first compound 10 µM) of the same compound?
**A.** 90.7%

**Q.** What about the viability, T/C (second compound 3.16 µM, first compound 0.0316 µM) of the same compound?
**A.** 97.7%

**Q.** What about the viability, T/C (second compound 3.16 µM, first compound 0.1 µM) of the same compound?
**A.** 104%

**Q.** And the viability, T/C (second compound 3.16 µM, first compound 0.316 µM)?
**A.** 98.5%

**Q.** What about the viability, T/C (second compound 3.16 µM, first compound 1 µM) of the same compound?
**A.** 93.4%

**Q.** What about the viability, T/C (second compound 3.16 µM, first compound 3.16 µM) of the same compound?
**A.** 94.3%

**Q.** What about the viability, T/C (second compound 3.16 µM, first compound 10 µM) of the same compound?
**A.** 88%

**Q.** What about the viability, T/C (second compound 10 µM, first compound 0.0316 µM) of the same compound?
**A.** 98.7%

**Q.** What about the viability, T/C (second compound 10 µM, first compound 0.1 µM) of the same compound?
**A.** 97.1%

**Q.** And the viability, T/C (second compound 10 µM, first compound 0.316 µM)?
**A.** 99.1%

**Q.** And the viability, T/C (second compound 10 µM, first compound 1 µM)?
**A.** 102%

**Q.** And the viability, T/C (second compound 10 µM, first compound 3.16 µM)?
**A.** 83.4%

**Q.** And the viability, T/C (second compound 10 µM, first compound 10 µM)?
**A.** 89%
